Measured values taken from patent US20230346816A1, “COMPOUNDS AND METHODS FOR TREATING VIRAL INFECTION” (priority 2020, published 2023).

Key:
IL-6 = assay: Gene expression analysis (quantitative PCR) of IL-6 in primary human chondrocytes; assay type: cell-based; details: IL-1β, 1 or 10 mM, 24 hrs, FIG. 3
Procedure: (§1) Normal cartilage were obtained from autopsy services at the hospital of University of Virginia, approved by the Institutional Review Board. Articular cartilage were harvested from the femoral condyles and the tibial plateaus. Cartilage shavings were harvested at the operation room and placed in tissue culture medium (DMEM, 10% FBS, penicillin, streptomycin), and shipped to the laboratory at 4° C. Chondrocytes were isolated by incubation of the cartilage fragments with 0.01% collagenase NB4 (Fisher Scientific, Catalog No. 50-204-1257) for 4 hrs at 37° C. Cells were maintained in continuous monolayer cultures in DMEM containing 10% FBS. Experiments were performed with cells less than 3 passages. When necessary, trypsin were used for cell passage.
(§2) Cells, as prepared in the MATERIALS section, were seeded in a 24-well plate (3×10^5/well) and incubated with culture medium overnight. Cells were then treated with Compound 2 at various concentrations in DMEM containing 2% FBS (1 or 10 mM) for 24 hrs. […] Synthesis of cDNA from total RNA and the quantitative PCR were carried out by using the iscript™ cDNA synthesis kit and the iQ™ SYBR Green Supermix kit (Bio-Rad Laboratories, Hercules, CA), respectively. […] The threshold cycle (CT) value were calculated from amplification plots. Data were analyzed using the 2-ΔΔCT method with 18s rRNA serving as the reference. […]

COX-2 = assay: Gene expression analysis (quantitative PCR) of COX-2 in primary human chondrocytes; assay type: cell-based; details: IL-1β, 1 or 10 mM, 24 hrs, FIG. 4
Procedure: as §1, §2

COVID-19 = assay: Prospective observational cohort study of NAG in hospitalized COVID-19 patients vs retrospective control arm; assay type: in vivo
[1] = NAG (n = 48) vs control (n = 100), univariate
[2] = multiple logistic regression, NAG (ref = control)

For `CC(=O)N[C@H]1[C@H](O)O[C@H](C)C[C@@H]1O` [Cpd 2, 2-(acetylamino)-2,4,6-trideoxy-β-D-glucopyranose], the “Expression of pro-inflammatory gene IL-6” value (IL-6) was “dose-dependent inhibition” and the “Expression of pro-inflammatory gene COX-2” value (COX-2) was “dose-dependent inhibition”.
In the case of `CC(=O)N[C@@H]1[C@@H](O)[C@H](O)[C@@H](CO)O[C@H]1O` [NAG, N-((2R,3R,4R,5S,6R)-2,4,5-trihydroxy-6-(hydroxymethyl)-tetrahydro-2H-pyran-3-yl)acetamide], the “Intubation, %” value (COVID-19; 700 mg NAG every 12 hours plus standard of care, NAG group n = 48) is reported as “(16.7%)”, the “ICU admission, odds ratio” value (COVID-19; [1]) is reported as 0.53 and the “Mortality, odds ratio” value (COVID-19; [1]) is reported as 0.37. The “Poor clinical outcome, odds ratio” value (COVID-19; [1]) was 0.30, the “Intubation, odds ratio” value (COVID-19; NAG (n = 48) vs control (n = 100), univariate, Fisher's exact test) was 0.60 and the “Hospital LOS, Hodges-Lehmann difference” value (COVID-19; NAG (n = 48) vs control (n = 100), univariate, Mann-Whitney U test) was 0.0. For the same compound, the “ICU admission, %” value (COVID-19; NAG group n = 48) was “(22.9%)”, the “Poor clinical outcome (combined death/hospice initiation), %” value (COVID-19; NAG group n = 48) was “(12.5%)” and the “Hospital LOS, median” value (COVID-19; NAG group n = 48, median (IQR) [range]) was 7. For the same compound, the “Hospice initiation, %” value (COVID-19; excludes patients that died, NAG n = 42) was “(0%)”, the “Hospice initiation, odds ratio” value (COVID-19; excludes patients that died, NAG n = 42 vs control n = 72, univariate) was 0.00 and the “ICU admission, odds ratio (multivariate)” value (COVID-19; [2]) was 0.32. The “Poor clinical outcome rate, odds ratio (multivariate)” value (COVID-19; [2]) was 0.30, the “Hospital length of stay, β-coefficient” value (COVID-19; multivariate linear regression, NAG (ref = control)) was −4.27 and the “ICU LOS, median” value (COVID-19; only patients admitted to the ICU, NAG n = 10) was 2.5. For the same compound, the “ICU LOS, Hodges-Lehmann difference” value (COVID-19; only patients admitted to the ICU, NAG n = 10 vs control n = 36, univariate) was 4.0, the “Duration of oxygen, Hodges-Lehmann difference” value (COVID-19; only patients that required oxygen support, NAG n = 46 vs control n = 86, univariate) was 0.0 days and the “Difference between control and NAG groups for intubation rates, hospital LOS, ICU admission, ICU LOS, duration of oxygen use, or hospice initiation” value (COVID-19; univariate analysis) was “no significant differences”.
